Read-outs that look alike come from different tables or passages of the source.
Key:
[1] = system: sensitive L5178Y mouse T-lymphoma cells (PAR); assay: MTT antiproliferative assay, sensitive cells; format: cell-based; settings: 72 h, mean ± SD
Description: (§1) Non-cancer mouse embryonic fibroblasts (NIH/3T3) were also used.
(§2) L5178Y mouse T-lymphoma cells (ECACC catalog no. 87111908, US FDA, Silver Spring, MD, USA) were transfected with the pHa MDR1/A retrovirus as previously reported. The ABCB1 (P-gp) overexpressing cells were selected by culturing the infected cells with 60 ng/mL of colchicine (Sigma-Aldrich Chemie GmbH, Steinheim, Germany) to preserve the MDR phenotype. L5178Y (parental, PAR) mouse T-cell lymphoma cells and the human ABCB1-transfected subline were cultured in McCoy’s 5A supplemented with 10% heat-inactivated horse serum, 100 U/L L-glutamine, and 100 mg/L penicillin-streptomycin mixture, all obtained from Sigma-Aldrich. The mouse embryonic fibroblast (NIH 3T3) cell line was purchased from ATCC (CRL-1658) and was cultured in DMEM medium supplemented with 10% fetal bovine serum. These adherent cells were detached using 0.25% trypsin and 0.02% EDTA for 5 min at 37 °C. Before the antiproliferative assay using NIH 3T3 cell line, the cells were seeded in untreated 96-well flat bottomed microtiter plates, following a 4 h incubation period in a humidified atmosphere (5% CO2, 95% air) at 37 °C.
The assay was performed according to the previously applied experimental settings.

[2] = system: mouse embryonic fibroblasts (NIH/3T3); assay: MTT antiproliferative assay, non-cancer cells; format: cell-based; settings: for IC50: non-cancer mouse embryonic fibroblasts, MTT, read-out: IC50 NIH/3T3 (C); for SI C/B (Selectivity Index): IC50 NIH/3T3 / IC50 MDR; for SI C/A (Selectivity Index): IC50 NIH/3T3 / IC50 PAR
Description: as §1
In addition, the antiproliferative activity of the compounds was also evaluated on non-cancerous mouse embryonic fibroblast cells (NIH/3T3), whose values were compared with those of PAR and MDR cells by evaluation of the selective index (SI) values. […] The highest selective index values (SIC/A = 9.39; SIC/B = 10.79) were found for the derivative bearing the trimethoxyphenyl substituent (17).
as §2

[3] = system: human ABCB1-transfected L5178Y mouse lymphoma cells; assay: Checkerboard combination assay with doxorubicin; format: cell-based; parameters: key to CI at ED50 (combination index): CI <1 synergy, =1 additive, >1 antagonism; settings: MDR cells; for CI at ED50 (combination index): best ratio
Description: The in vitro interactions between the compounds and the well-known antitumor drug and P-gp substrate, doxorubicin, were evaluated in a combination chemotherapy model on human ABCB1-transfected mouse T-lymphoma cells. The nature of drug–drug interactions was assessed by determination of the combination index (CI) using the Chou and Talalay method (Figure 1), and therefore evaluated as synergistic (CI < 1), additive (CI = 1), or antagonistic (CI > 1).
Doxorubicin (2 mg/mL, Teva Pharmaceuticals, Budapest, Hungary) was serially diluted horizontally in 100 µL as previously described, starting with 8.6 µM. The resistance modifier was subsequently diluted vertically in 50 µL; the starting concentration was determined based on the IC50. […] The checkerboard plates were kept for 72 h at 37 °C in a CO2 incubator, and at the end of the incubation period, the cell growth was determined by MTT staining method, as described earlier. Drug interactions were evaluated using Calcusyn software. Each dose–response curve (for individual agents as well as combinations) was fit to a linear model using the median effect equation in order to obtain the median effect value (corresponding to the IC50) and slope (m). The goodness-of-fit was assessed using the linear correlation coefficient, r, and only data from analysis with r > 0.90 were presented. The extent of interaction between drugs was expressed using the combination index, in which a CI value close to 1 indicates additivity, while a CI < 1 is defined as synergy and a CI > 1 as antagonism.

[4] = system: human ABCB1-gene transfected L5178Y subline (MDR); settings: for RR (relative resistance ratio) = IC50MDR/IC50PAR: RR ≤ 0.5 means CS effect

Row | IC50 [1] [µM] | IC50 [4] [µM] | RR (relative resistance ratio) = IC50MDR/IC50PAR [4] | Compound | IC50 [2] [µM] | SI C/B (Selectivity Index) [2] | SI C/A (Selectivity Index) [2] | IC50 ([2]; NIH3T3) [µM] | CI at ED50 (combination index) [3] | Interaction [3]
1 | 14.8 ± 1.23 | 5.96 ± 0.26 |  | CCC1CN(C)C2Cc3c([nH]c4ccccc34)C(=NN=Cc3ccccc3O)CC1C2C(=O)OC (stereo not shown) [Compound 5, 3-[(2″-hydroxybenzylidene)hydrazineylidene]dregamine] |  | 2.12 | 0.86 | 12.7 ± 2.29 | 0.166 | Strong Synergism
2 | 13.1 ± 0.74 | 4.62 ± 0.14 |  | CCC1CN(C)C2Cc3c([nH]c4ccccc34)C(=NN=Cc3cccc(OC)c3)CC1C2C(=O)OC (stereo not shown) [Compound 7, 3-[(3″-methoxybenzylidene)hydrazineylidene]dregamine] |  | 2.61 | 0.92 | 12.1 ± 1.4 | 0.152 | Strong Synergism
3 | 8.84 ± 0.76 | 7.47 ± 0.17 | 0.85 | CCC1CN(C)C2Cc3c([nH]c4ccccc34)C(=NN=Cc3ccc(Br)cc3)CC1C2C(=O)OC (stereo not shown) [Compound 8, 3-[(4″-bromobenzylidene)hydrazineylidene]dregamine] |  | 1.56 | 1.32 | 11.7 ± 2.07 | 0.451 | Synergism
4 | 14.5 ± 0.84 | 6.57 ± 0.12 |  | CCC1CN(C)C2Cc3c([nH]c4ccccc34)C(=NN=Cc3ccc(Cl)cc3)CC1C2C(=O)OC (stereo not shown) [Compound 9, 3-[(4″-chlorobenzylidene)hydrazineylidene]dregamine] |  | 1.47 | 0.67 | 9.67 ± 0.94 | 0.194 | Strong Synergism
5 | 20.7 ± 0.8 | 11.7 ± 0.67 | 0.56 | CCC1CN(C)C2Cc3c([nH]c4ccccc34)C(=NN=Cc3ccc(C(F)(F)F)cc3)CC1C2C(=O)OC (stereo not shown) [Compound 10, 3-[(4″-(trifluoromethyl)benzylidene)hydrazineylidene]dregamine] |  | 1.06 | 0.60 | 12.4 ± 1.58 | 0.272 | Strong Synergism
6 | 23.7 ± 0.64 | 8.4 ± 0.52 |  | CCC1CN(C)C2Cc3c([nH]c4ccccc34)C(=NN=Cc3ccc(OC(F)(F)F)cc3)CC1C2C(=O)OC (stereo not shown) [Compound 11, 3-[(4″-(trifluoromethoxy)benzylidene)hydrazineylidene]dregamine] |  | 1.60 | 0.57 | 13.5 ± 1.14 | 0.601 | Synergism
7 | 26.4 ± 0.53 | 7.75 ± 0.55 |  | CCC1CN(C)C2Cc3c([nH]c4ccccc34)C(=NN=Cc3ccc(O)cc3)CC1C2C(=O)OC (stereo not shown) [Compound 13, 3-[(4″-hydroxybenzylidene)hydrazineylidene]dregamine] |  | 3.94 | 1.16 | 30.5 ± 0.95 | 0.361 | Synergism
8 | 18.1 ± 2.69 | 8.64 ± 0.67 |  | CCC1CN(C)C2Cc3c([nH]c4ccccc34)C(=NN=Cc3ccc(OC)cc3)CC1C2C(=O)OC (stereo not shown) [Compound 14, 3-[(4″-methoxybenzylidene)hydrazineylidene]dregamine] |  | 2.28 | 1.09 | 19.7 ± 0.41 | 0.402 | Synergism
9 | 12.6 ± 1.06 | 6.41 ± 0.33 | 0.51 | C=CCOc1ccc(C=NN=C2CC3C(CC)CN(C)C(Cc4c2[nH]c2ccccc42)C3C(=O)OC)cc1 (stereo not shown) [Compound 15, 3-[(4″-(allyloxy)benzylidene)hydrazineylidene]dregamine] |  | 2.32 | 1.18 | 14.9 ± 0.72 | 0.177 | Strong Synergism

Further lines, the compound ahead of its results:

Row | Compound | IC50 [1] [µM] | IC50 [4] [µM] | RR (relative resistance ratio) = IC50MDR/IC50PAR [4] | IC50 [2] [µM] | SI C/B (Selectivity Index) [2] | SI C/A (Selectivity Index) [2] | IC50 ([2]; NIH3T3) [µM] | CI at ED50 (combination index) [3] | Interaction [3]
10 | N.N.[Cl][Pt][Cl] [Cisplatin, reference compound] | 8.16 ± 1.7 |  |  | 1.06 ± 0.02 |  |  |  |  | 
11 | CC[C@H]1CN(C)[C@H]2Cc3c([nH]c4ccccc34)C(=O)C[C@H]1C2C(=O)OC (stereo partly shown) [Compound 1, Dregamine] | 37.2 ± 4.99 | 23 ± 0.48 | 0.62 |  | >4.35 | >2.69 | > 100 | 0.756 | 
12 | CCCC=NN=C1CC2C(CC)CN(C)C(Cc3c1[nH]c1ccccc31)C2C(=O)OC (stereo not shown) [Compound 3, 3-[(butylidene)hydrazineylidene]dregamine] | 53.1 ± 3.16 | 31.5 ± 1.84 | 0.59 |  | >3.17 | >1.88 | > 100 | 0.305 | Synergism
13 | CCC1CN(C)C2Cc3c([nH]c4ccccc34)C(=NN=Cc3ccccc3Br)CC1C2C(=O)OC (stereo not shown) [Compound 4, 3-[(2″-bromobenzylidene)hydrazineylidene]dregamine] | 19.1 ± 0.76 | 10.9 ± 1.34 | 0.57 |  | 3.22 | 1.83 | 34.9 ± 5.63 |  | 
14 | CCC1CN(C)C2Cc3c([nH]c4ccccc34)C(=NN=Cc3cccc([N+](=O)[O-])c3)CC1C2C(=O)OC (stereo not shown) [Compound 6, 3-[(3″-nitrobenzylidene)hydrazineylidene]dregamine] | 11.9 ± 1.09 | 8.72 ± 0.52 | 0.73 |  | 1.65 | 1.21 | 14.4 ± 1.36 | 0.279 | Strong Synergism
15 | CCC1CN(C)C2Cc3c([nH]c4ccccc34)C(=NN=Cc3ccc(OCc4ccccc4)cc3)CC1C2C(=O)OC (stereo not shown) [Compound 16, 3-[(4″-(benzyloxy)benzylidene)hydrazineylidene]dregamine] | 8.93 ± 0.75 | 5.86 ± 0.54 | 0.66 |  | 3.12 | 2.04 | 18.3 ± 1.3 | 0.34 | Synergism
16 | CCC1CN(C)C2Cc3c([nH]c4ccccc34)C(=NN=Cc3c(O)ccc4ccccc34)CC1C2C(=O)OC (stereo not shown) [Compound 19, 3-[((2″-hydroxy-1″naphthalenyl)methylene)hydrazineylidene]dregamine] | 12.9 ± 0.35 | 12.9 ± 0.35 | 1.00 |  | 1.35 | 1.35 | 17.5 ± 1.03 | 0.222 | Strong Synergism
17 | CCC1CN(C)C2Cc3c([nH]c4ccccc34)C(=NN=Cc3c[nH]c4cc(Br)ccc34)CC1C2C(=O)OC (stereo not shown) [Compound 21, 3-[((6-bromo-1H-indol-3-yl)methylene)hydrazineylidene]dregamine] | 13.62 ± 0.03 | 12.9 ± 1.57 | 0.95 |  | 1.14 | 1.08 | 14.8 ± 2.3 | 0.445 | Synergism
